Test results taken from ChEMBL document CHEMBL1127249, “Design, structure activity and x-ray crystallographic studies of pseudosymmetrical nonpeptidyl HIV-1 protease inhibitors” (Bioorg Med Chem Lett, 1994).

Key:
[1] = target: Human immunodeficiency virus type 1 protease (Human immunodeficiency virus 1, UniProt Q72874); assay: Compound was tested for inhibitory activity against recombinant HIV-1 protease using 125 I-SPA (scintillation proximity assay)
[2] = test system: Human immunodeficiency virus 1; assay: Antiviral activity against HIV-1; format: functional, organism-based

Compound	IC50 [1]	IC50 [2]
O=C(N[C@H]1CCCC[C@@H]1NC(=O)[C@H](Cc1ccccc1)CC(O)C[C@@H](Cc1ccccc1)C(=O)N[C@H]1CCCC[C@@H]1NC(=O)c1cc2ccccc2cn1)c1cc2ccccc2cn1	45 nM	
CC(C)(C)OC(=O)N[C@H]1CCCC[C@@H]1NC(=O)[C@H](Cc1ccccc1)CC(O)C[C@@H](Cc1ccccc1)C(=O)N[C@H]1CCCC[C@@H]1NC(=O)OC(C)(C)C	> 10000 nM	
O=C(N[C@H]1CCCC[C@@H]1NC(=O)[C@H](Cc1ccccc1)CC(O)C[C@@H](Cc1ccccc1)C(=O)N[C@H]1CCCC[C@@H]1NC(=O)c1ccncc1)c1ccncc1	350 nM	> 20000 nM
O=C(N[C@H]1CCCC[C@@H]1NC(=O)[C@H](Cc1ccccc1)CC(O)C[C@@H](Cc1ccccc1)C(=O)N[C@H]1CCCC[C@@H]1NC(=O)c1cccnc1)c1cccnc1	600 nM	
CC(=O)N[C@H]1CCCC[C@@H]1NC(=O)[C@H](Cc1ccccc1)CC(O)C[C@@H](Cc1ccccc1)C(=O)N[C@H]1CCCC[C@@H]1NC(C)=O	3000 nM	
O=C(N[C@H]1CCCC[C@@H]1NC(=O)[C@H](Cc1ccccc1)CC(O)C[C@@H](Cc1ccccc1)C(=O)N[C@H]1CCCC[C@@H]1NC(=O)c1ccccn1)c1ccccn1	400 nM	> 20000 nM
O=C(N[C@H]1CCCC[C@@H]1NC(=O)[C@H](Cc1ccccc1)CC(O)C[C@@H](Cc1ccccc1)C(=O)N[C@H]1CCCC[C@@H]1NC(=O)c1ccc2ccccc2n1)c1ccc2ccccc2n1	40 nM	2000 nM
